Source: US20130096138A1, “NOVEL THIOUREA OR UREA DERIVATIVE, PREPARATION METHOD THEREOF, AND PHARMACEUTICAL COMPOSITION FOR PREVENTING OR TREATING AIDS, CONTAINING SAME AS ACTIVE INGREDIENT” (AVIXGEN INC., priority 2010, published 2013)

Test system: HIV
Assay: Assay for inhibitory activity against HIV (p24 ELISA, infected MT-4 cells)
Assay type: cell-based
Settings: Human immunodeficiency virus 1, MT4, MT-4 cells infected with pNL4-3-derived HIV, 48 hrs + additional 48 hrs culture, read-out: Conc. for Inhibition of HIV Activity (IC50)
Procedure: The thiourea or urea derivatives of the present invention were assayed for inhibitory activity against HIV as follows.
A pNL4-3 vector carrying an HIV genome was transduced into 293FT cells. […] 293FT cells were seeded at a density of 3.0×10^5 cells/well into 6-well plates containing antibiotic-free DMEM supplemented with 10% FBS and grown for 48 hrs. Upon 90˜95% confluency, the transduction was performed.
The DNA (pNL4-3) was added at a final concentration of 10 ng/mL to 250 μL of the reduced serum medium Opti-MEM I (GIBCO™, USA). Separately, 4 μL of Lipofectamine™ 2000 (Invitrogen, USA) was mixed with 250 μL of Opti-MEM I (GIBCO™), and incubated at room temperature for 5 min. The DNA (pNL4-3) was mixed at a ratio of 1:2 with the lipofectamine and reacted at room temperature for 20 min to form a DNA-lipofectamine complex. After removal of the medium from the cell culture, the DNA-lipofectamine complex was added to the cells and incubated for 4 hrs in a CO2 incubator. Then, the cell culture medium was replaced with a fresh antibiotic-free, 10% FBS-supplemented DMEM, followed by incubation for an additional 48 hrs. The HIV-infected cell culture was centrifuged at 1,500 rpm for 5 min to give a virus supernatant.
MT-4 cells were plated at a density of 1.0×10^6 cells/mL into 6-well plates containing RPMI supplemented with 10% FBS, and incubated for 4 hrs before infection at a ratio of 1:1 with the virus supernatant. The cells were incubated for 48 hrs in a CO2 incubator, after which the culture medium was replaced with a fresh one. Again, incubation was continued for an additional 72 hrs to amplify the virus. After centrifugation at 1,500 rpm for 5 min, the virus supernatant thus obtained was examined for virus density using a Virononstika HIV-1 Antigen Microelisa system kit (bioMerieux, Inc. Netherland).
2. Assay for Inhibitory Activity against HIV
The thiourea or urea derivatives prepared in Examples 1 to 94 were dissolved in DMSO to prepare respective 10 mM or 20 mM stocks, and stored at −20° C. The stocks were diluted to a starting concentration of 200 μM in DMSO before use in experiments.
MT-4 cells were suspended at a density of 4×10^5 cells in 200 μL of RPMI 1640 (Gibco, 10% FBS) per well of 24-well plates, and infected with 200 μL of a virus supernatant containing 2×10^5 pg/mL to give a total volume of 400 μL. After the stocks of the thiourea or urea derivatives were […] to 200 μM in DMSO, 2 μL of each dilution was added to the cells to a final concentration of 1 μM or less. For a positive control, 10 μM AZT (azidothymidine,Sigma, USA) was used at a final concentration of 50 nM while DMSO was used at a final concentration of 0.5% as a negative control. The cells were cultured for 48 hrs in a CO2 incubator (37° C., 5% CO2), and the culture medium was replaced by RPMI 1640 containing the thiourea or urea derivative at a final concentration of 1 μM, followed by incubation for an additional 48 hrs. Virus soups were separated from cells by centrifugation at 1,500 rpm for 5 min and then at 13,000 rpm for 5 min. ELISA for p24 concentrations was carried out using a Virononstika HIV-1 Antigen Microelisa system kit (bioMerieux, Inc. Netherland) to determine the inhibitory activity of each of the thiourea or urea derivatives against HIV.

Row | SMILES | IC50
1 | CC(C)(C)c1ccc(C(=O)NC(=S)Nc2cccc3c(O)cccc23)cc1 [Example 1, 1-(4-tert-Butyl-benzoyl)-3-(5-hydroxy-naphthalen-1-yl)-thiourea] | 30 nM
2 | CC(C)(C)c1ccc(C(=O)NC(=S)NC2CCCCC2)cc1 [Example 16, 1-(4-tert-butyl-benzoyl)-3-cyclohexyl-thiourea] | 500 nM
3 | CC(C)(C)c1ccc(C(=O)NC(=S)Nc2ccccn2)cc1 [Example 37, 1-(4-tert-butyl-benzoyl)-3-(pyridin-2-yl)-thiourea] | 500 nM
4 | CC(C)(C)c1ccc(C(=O)NC(=S)Nc2cccc(Cl)c2)cc1 [Example 38, 1-(4-tert-butyl-benzoyl)-3-(3-chloro-phenyl)-thiourea] | 300 nM
5 | CC(C)(C)c1ccc(C(=O)NC(=S)Nc2cccc3ncccc23)cc1 [Example 50, 1-(4-tert-butyl-benzoyl)-3-(quinolin-5-yl)-thiourea] | 1000 nM
